Reference: a melting point compilation (Tetko et al.; mined from patent text by program, amines drawn as free bases though some values may be those of a salt)

| SMILES | melting point [°C] |
| --- | --- |
| COC(=O)Cc1ccc2c(c1)C(=O)c1ccccc1CO2 | 74 to 76 |
| Cc1cc(-c2ccc(C(F)(F)F)cc2)nc(-c2cccc(-c3cccc(S(N)(=O)=O)c3)n2)c1 | 229 |
| CCCCOC1c2ccccc2C(=O)N(CC2CC2)C1(/C=C/C(N)=O)CNC(=O)OC(C)(C)C (configuration not stated) | 198 to 199 |
| ClCCC(=C(c1ccccc1)c1ccc(OCCN2CCCC2)cc1)c1ccccc1 | 112 to 115 |
| CSC1C(=O)Nc2ccc(Oc3ccc(F)c(C(F)(F)F)c3Cl)cc21 (configuration not stated) | 137 to 142 |
| CCOc1cccc(COc2ccc3c(c2)C=C(C(=O)Nc2ccc(CN(C)C4CCOCC4)cc2)CCS3(=O)=O)c1 | 189 to 192 |
| Cc1nc(-c2ccccc2Cl)sc1-c1ccccc1 | 63 to 65 |
| CC(O)c1cn(C2CCc3c(F)cc(F)cc3C2)c(=S)[nH]1 (configuration not stated) | 210 to 211 |
| O=C(O)C1=Cc2ccc(C(F)(F)F)cc2OC1C(F)(F)F (configuration not stated) | 190 to 194 |
| O=C(O)Cc1c(C(=O)c2cccc(Cl)c2)[nH]c2ccc(Cl)cc12 | 243 to 247 |
| COc1cc(/C=C\c2cnc(N)nc2N)cc(OC)c1OC | 175 to 177 |
| COc1c(SCCCN2CCC(Cc3ccccc3)CC2)ccnc1CSc1nc2ccccc2[nH]1 | 73 to 75 |
| O=C(c1ccc([N+](=O)[O-])cc1)N1CCc2cc(S(=O)(=O)N3CC(c4ccccc4)NC3=O)ccc21 (configuration not stated) | 145 |
| COCCOCCOCC(=O)N(C)c1c(I)c(N)c(I)c(C(=O)O)c1I | 100 to 109 |
| C=CCCCCCCCCN=C=O | 94 to 97 |
| CN(C)c1c(F)c(F)c(F)c2c1c(=O)c(C(=O)O)cn2C1CC1 | 160 to 163 |
| CS(=O)(=O)Nc1cc(C(=O)O)c2c(c1)C(C(=O)O)CCN2 (configuration not stated) | 188 to 190 |
| Cc1ccc(C(=O)c2c(C)cc(CC(=O)O)n2C)cc1 | 160 to 161 |
| COC(=O)C=Nc1cc(Cl)ccc1C(=O)O | 201 to 203 |
| O=[N+]([O-])C1COc2cc3c(cc2C1c1ccccc1C1OCCCO1)OCO3 (configuration not stated) | 207 |
| NC(=O)c1nnn(Cc2ccccc2F)c1C(N)=O | 49 to 51 |
| O=C(Nc1cccc2ccccc12)NC(Cc1ccc(C(F)(F)F)cc1)C(O)c1ccc(F)cc1 (configuration not stated) | 222 to 223 |
| CC(C)c1ccc2c(c1)OCc1ccc(C#N)cc1C2=O | 101 to 108 |
| O=Cc1c(Br)nc(-c2ccccc2)n1Cc1cc2c(cc1Cl)OCO2 | 148 |
| O=C(NCC12CC3CC(CC(C3)C1)C2)c1cc(CCCNCCCO)ncc1Cl | 84 to 85 |
| COc1ccc2c(c1)C(C)(CC#N)C(=O)N2C (configuration not stated) | 75.5 to 76 |

| SMILES | melting point [°C] |
| --- | --- |
| COC(=O)c1nc(C)c(-c2ccccc2)nc1N | 162 |
| O=C(O)[C@@H]1CCCN1C(=O)CCBr | 83 to 85 |
| CCCNc1c2c(nc3ccccc13)CCCC2=O | 145 |
| Nc1ccc2c(c1)C(=O)N(c1ccc3ccsc3c1)C2 | 233 to 236 |
| COC1([N+](=O)[O-])C=CC(C=Cc2ccccc2)=CC1 (configuration not stated) | 131 to 132 |
| COc1cc(OC)c(/C=C2/C(=O)NC(=O)/C2=C/c2ccccc2)c(OC)c1 | 246 to 248 |
| OC1CSC(Oc2cncc(-c3cncnc3)c2)C(O)C1O (configuration not stated) | 196 |
| COC(=O)N1CCC[C@@H](OC)[C@@H]1CC(=O)Cn1cnc2c(Cl)c(Cl)sc2c1=O (relative stereo) | 58 to 62 |
| Nc1cccc(-c2cccnc2)n1 | 108 |
| Nc1ccc(S(=O)(=O)Nc2cccc3c(Cl)c[nH]c23)cn1 | 206 to 207 |
| c1ccc(CN2CCC(Cc3nc4ccccc4[nH]3)CC2)cc1 | 222 |
| CCn1cc(C(=O)O)c(=O)c2cc(F)c(N3CCC(CN)CC3)nc21 | 203 to 206 |
| Nc1c(-c2ccc(Cl)cc2Cl)nnn1Cc1ccc(S(N)(=O)=O)cc1 | 204 to 206 |
| Oc1ccc(-c2nc3cc(O)cc(C(Br)CBr)c3o2)cc1 (configuration not stated) | 175 to 177 |
| O=C1COc2c(cc(Cl)cc2C(=O)NC2CCN(CCc3ccccc3)CC2)N1 | 233 to 235 |
| CSCN1C(=O)c2cccnc2N(CSC)c2cc(Cl)ccc21 | 181 to 182 |
| CCCNC(=O)c1cc2c(nc(C)n2C)c2c1CCC(c1ccccc1)O2 (configuration not stated) | 273 |
| O=c1[nH]nnn1-c1ccc(Cl)cc1F | 185 to 187 |
| O=c1oc(/C=C/c2ccc(OC(F)F)c(OC(F)F)c2)nc2ccccc12 | 113 to 115 |
| Cc1cc(C(=O)N2Cc3cccn3Cc3ccccc32)ccc1C1=CCC2CC1C2(C)C (configuration not stated) | 139 to 140 |
| N#Cc1cccc2c1N(Cc1ccc(Cl)s1)C(=O)C21COc2cc3c(cc21)OCO3 (configuration not stated) | 192 to 193 |
| CC#CCOc1ccc(S(=O)(=O)C2(C(=O)NO)CCN(Cc3cccnc3)CC2)cc1 | 115 |
| CNc1cc(Sc2ccc(O)cc2)c(N)cc1[N+](=O)[O-] | 206 |
| Cc1nccn1CCN1CCC(Nc2nc3ccccc3n2Cc2ccc(F)cc2)CC1 | 170 |
| COc1cccc([C@H]2O[C@H](CC(=O)Nc3ccc4oc(CCC(=O)O)cc4c3)C(=O)N(CC(C)(C)CO)c3ccc(Cl)cc32)c1OC | 207 to 209 |
| Cn1cc(C2=C(c3cn(CCCSc4ncc[nH]4)c4ccccc34)C(=O)NC2=O)c2ccccc21 | 130 to 132 |

| SMILES | melting point [°C] |
| --- | --- |
| CC(CBr)N1CCN(c2ccccn2)CC1 (configuration not stated) | 50 to 51 |
| CCCCN1C(=O)NC(CC(=O)O)C1=O (configuration not stated) | 132 |
| COc1ccc(CC#N)c(CCNC(C)=O)c1OC | 134 to 136 |
| COc1ccc(CCC#N)cc1OC | 45 to 48 |
| O=C(Nc1ccc(-n2nc(C(F)(F)F)cc2C(F)(F)F)cc1)c1ccncc1[N+](=O)[O-] | 207 to 209 |
| O=c1c2c(c3cccnc3n1-c1cccc(Cl)c1)OC(CO)C2 (configuration not stated) | 243 to 245 |
| CCCCc1nc(N)cc(=O)[nH]1 | 242 to 245 |
| NNC(=O)NCCS(=O)(=O)O | 212 to 215 |
| CCC1Cn2c(ncc(C(N)=O)c2=O)-c2ccccc21 (configuration not stated) | 197 to 202 |
| CNC(=O)c1cc(C(=O)OCCO)cc(C(=O)NC)n1 | 214 to 215 |
| O=C1NC(=O)C(CC(=O)N2CCN(c3cccc(CNC(=O)c4nc5ccccc5c(=O)[nH]4)c3)CC2)N1 (configuration not stated) | 280 to 282 |
| Cc1cc(Oc2ncc(C(F)(F)F)cc2Cl)nn1C(=O)NC1CC1 | 98 to 99 |
| CC(=O)C1C(=O)c2cccc(N)c2C1=O (configuration not stated) | 126 to 128 |
| Cc1c(NC(=O)c2ccc(-c3ccc(F)cc3)c(F)c2)ccc2cc(CN3CCCCCC3)cnc12 | 162 to 163 |
| OCc1ccc(-c2ncn(-c3ccc(OC(F)(F)F)cc3)n2)cc1 | 112 to 114 |
| O=C(O)c1ccc(OCCCCCCO)cc1F | 98 to 99 |
| O=C(O)/C=C/c1ccc(OCC2CCCO2)cc1Oc1ncc(C(F)(F)F)cc1Cl (configuration not stated) | 106 to 109 |
| CCOC(=O)C1=C(COCc2nnc(N)s2)NC(C)=C(C(=O)OC)C1c1cccc(Cl)c1Cl (configuration not stated) | 194 |
| CCCCc1oc2ccc(C(=O)OC)cc2c1C(=O)c1ccc(OC)cc1 | 75 to 78 |
| COc1cccc(CC(=O)O)c1OCCCc1cn(-c2ccc([N+](=O)[O-])cn2)nc1C(C)C | 161 to 162 |
| CCOC(=O)c1c(C(F)(F)F)n(C)cc(-c2cc(OC(C)C)c(Cl)cc2F)c1=O | 170 to 172 |
| CCOC(=O)COc1ccc(OCc2ccccc2)cc1 | 65 to 68 |
| O=C1CC(Br)(CC(Br)(Br)Br)O1 (configuration not stated) | 71 to 73 |
| CON=C1C=C(NC(=O)N(N)CCO)C(Cl)=C(C)C1Cl (configuration not stated) | 152 to 156 |
| CN(C)c1ccc(/C=C/c2c(F)cccc2F)c([N+](=O)[O-])c1 | 152 to 153 |
| CCOC(=O)c1cnn2c(-c3cccnc3)ccnc12 | 170 to 171 |

| SMILES | melting point [°C] |
| --- | --- |
| CC(C)On1c(C2CCCCC2)nc2c(N)nc3ccccc3c21 | 175 to 178 |
| OC1(c2cncs2)CCCc2cc(Cl)ccc21 (configuration not stated) | 108 to 109 |
| CCn1cc(C(=O)O)c(=O)c2ccc(I)cc21 | 237 to 238 |
| O=Cc1cc(Br)ccc1Oc1ccc(Cl)c(Cl)c1 | 129 to 132 |
| CC(=O)OCc1nc(C#N)cc(OCc2ccccc2)c1OCc1ccccc1 | 98 to 99 |
| N#Cc1ccc(C(F)(F)C(F)(F)c2ccccc2)cc1 | 118 to 123 |
| Oc1cccc(CN2CCCC2)c1 | 100 to 102 |
| S=C1Nc2ccccc2Sc2nccn21 | 156 to 159 |
| COc1cccc(CNC(=O)c2c(-c3ccc(F)cc3)c(-c3ccc(F)cc3)c(C=O)n2C(C)C)c1 | 167 to 168 |
| COc1ccc(C(=NO)c2cccc(F)c2F)c(O)c1Cl | 198 to 199 |
| COc1cc(F)c(F)cc1C=O | 74 |
| Cc1cc(C(=O)NCC(N)=O)cc(-c2cccc3cc(Cc4cccc(C(F)(F)F)c4)sc23)n1 | 183 to 184 |
| O=C(O)Cc1ccc(NC(=O)C(COc2cccc(Cl)c2)NS(=O)(=O)c2ccc(Cl)cc2)cc1 (racemic) | 220 to 221 |
| Clc1cccc(-c2nc(Cl)c3ccccc3n2)c1 | 157 to 158 |
| COc1ccc(-c2nc(Sc3nc(-c4ccc(OC)cc4)c(-c4ccc(OC)cc4)[nH]3)[nH]c2-c2ccc(OC)cc2)cc1 | 244 to 245 |
| COc1ccc(CCN(C)CCCCc2ccc(NC(=O)c3cccc4c(=O)c5ccccc5[nH]c34)cc2)cc1OC | 120 |
| CCn1c(=O)c2cc(C(=O)O)cn2c2cc(Cl)ccc21 | 322 to 326 |
| Cc1ccc2c(Sc3cc(Cl)cc(Cl)c3)c(CC(N)=O)[nH]c2c1 | 197 |
| Cc1ccccc1-c1cccc(C=NNC(=S)NN2CCCC2)n1 | 172 to 173 |
| O=C(O)C1CCN(S(=O)(=O)c2ccc(Br)cc2)CC1 | 225 to 227 |
| CC(=O)Nc1ncc(Sc2nnnn2C)s1 | 208 to 210 |
| CCCCN1C(=O)CC(=O)N(C)c2ccccc21 | 141 to 143 |
| CN1C(=O)C(NC(=O)Nc2ccc([N+](=O)[O-])cc2)N=C(c2ccccc2)c2ccccc21 (configuration not stated) | 292 to 293 |
| CCN1C(=O)CN(C(=O)C(F)(F)F)Cc2cc(OC)c([N+](=O)[O-])cc21 | 128 to 129 |
